Experimental data taken from ChEMBL document CHEMBL1128868, “A carotane sesquiterpene as a potent modulator of the Maxi-K channel from Arthrinium phaesospermum” (Bioorg Med Chem Lett, 1995).
Calls of active or inactive are those of the source. The rule behind the calls is not given here.

How the values were obtained:
[1] = organism: Bos taurus; test: Inhibition of [125I]ChTX binding to Maxi-K channels in bovine aortic sarcolemmal membranes; assay type: cell membranes; conditions: Aorta
[2] = target: Potassium voltage-gated channel subfamily A member 3 (Rattus norvegicus) (UniProt P15384); test: Inhibition of [125I]ChTX binding to voltage-gated potassium channel in rat brain synaptic plasma membranes; No effect; assay type: cell membranes; conditions: Membrane
Chain of Potassium voltage-gated channel subfamily A member 3 (Rattus norvegicus) (P15384 whole entry): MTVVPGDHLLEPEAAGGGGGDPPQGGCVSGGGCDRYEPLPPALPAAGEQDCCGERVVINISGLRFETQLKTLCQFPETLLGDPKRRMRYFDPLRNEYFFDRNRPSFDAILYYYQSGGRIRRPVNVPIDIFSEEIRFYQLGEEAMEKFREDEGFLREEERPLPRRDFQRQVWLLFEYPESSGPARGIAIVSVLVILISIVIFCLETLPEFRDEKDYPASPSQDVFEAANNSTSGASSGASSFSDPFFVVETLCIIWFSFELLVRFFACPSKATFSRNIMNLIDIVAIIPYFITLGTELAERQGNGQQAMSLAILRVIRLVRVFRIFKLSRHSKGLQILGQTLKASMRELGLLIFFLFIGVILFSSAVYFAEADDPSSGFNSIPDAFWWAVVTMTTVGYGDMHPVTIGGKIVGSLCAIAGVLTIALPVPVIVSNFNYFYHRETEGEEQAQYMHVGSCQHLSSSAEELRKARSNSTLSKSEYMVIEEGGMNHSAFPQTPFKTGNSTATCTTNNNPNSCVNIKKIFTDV

- inhibition [1]: 200 nM
- inhibition [2]: inactive
Compound: CC1=CC[C@@]2(C)C[C@H](O)[C@@](O)(C(C)C)[C@@H]2CC1
